Results from patent US5776944A, “7-(4-aminomethyl-3-methyloxyiminopyrroplidin-1-yl)-1-cyclopropyl-6-flu oro-4-oxo-1,4-dihydro-1,8-naphthyridine-3-carboxylic acid and the process for the preparation thereof” (LG Chemical Ltd., priority 1994, dated 1998).
≈ marks a conversion by molar mass, not a printed value. Entries after “also recorded” stand apart in the source; their conditions may differ.

Key:
[1] = background art; cited from earlier work
gram-positive strains = conditions: background art; cited from earlier work
[2] = system: Citrobacter diversus 2046E; assay: In vitro antibacterial activity (MIC, agar dilution), Biological Example 1; type: cell-based; conditions: Citrobacter koseri, 18 h, Table 25, read-out: Minimum Inhibitory Concentration
[3] = system: Staphylococcus aureus 6538p; assay: as above; type: cell-based; conditions: 18 h, Table 25, read-out: Minimum Inhibitory Concentration
[4] = system: Pseudomonas aeruginosa 10145; assay: as above; type: cell-based; conditions: 18 h; Pseudomonas aeruginosa 10145, Table 25; read-out: Minimum Inhibitory Concentration
[5] = system: Streptococcus faecalis 29212; assay: as above; type: cell-based; conditions: Enterococcus faecalis, 18 h; Streptococcus faecalis 29212, Table 25; read-out: Minimum Inhibitory Concentration
[6] = system: Klebsiella aerogenes 1976E; assay: as above; type: cell-based; conditions: 18 h, Table 25, read-out: Minimum Inhibitory Concentration
Escherichia coli 3190Y = assay: as above; type: cell-based; conditions: 18 h, Table 25, read-out: Minimum Inhibitory Concentration
[7] = system: Enterobacter cloacae 1194E; assay: microbe, parasite or virus in culture; type: cell-based; conditions: 18 h, read-out: Minimum Inhibitory Concentration
[8] = system: Staphylococcus epidermidis 178; assay: In vitro antibacterial activity (MIC, agar dilution), Biological Example 1; type: cell-based; conditions: 18 h; Staphylococcus epidermidis 178, Table 25; read-out: Minimum Inhibitory Concentration
Acute oral toxicity test = conditions: in vivo, ICR male mouse, 7 days
Protocol: To determine the acute oral toxicity of the compounds prepared in Examples 1 and 34, the test solution containing the compounds in various concentrations were orally administered to ICR male mouse in an amount of 10 ml per kg of body weight. For 7 days after administration, the lethality and the conditions of test mouse were observed, from which LD50 value (mg/kg), was calculated.

[9] = system: Staphylococcus aureus 241; assay: In vitro antibacterial activity (MIC, agar dilution), Biological Example 1; type: cell-based; conditions: 18 h; Staphylococcus aureus 241, Table 25; read-out: Minimum Inhibitory Concentration
Enterobacter cloacae P99 = assay: microbe, parasite or virus in culture; type: cell-based; conditions: P99, 18 h, read-out: Minimum Inhibitory Concentration
[10] = system: Escherichia coli TEM3 3455E; assay: microbe, parasite or virus in culture; type: cell-based; conditions: TEM33455E, 18 h, read-out: Minimum Inhibitory Concentration
[11] = system: Escherichia coli TEM5 3739E; assay: microbe, parasite or virus in culture; type: cell-based; conditions: TEM53739E, 18 h, read-out: Minimum Inhibitory Concentration
[12] = system: Klebsiella aerogenes 1082E; assay: In vitro antibacterial activity (MIC, agar dilution), Biological Example 1; type: cell-based; conditions: 18 h, Table 25, read-out: Minimum Inhibitory Concentration
Escherichia coli 10536 = assay: as above; type: cell-based; conditions: 18 h; Escherichia coli 10536, Table 25; read-out: Minimum Inhibitory Concentration
Micrococcus luteus 9341 = assay: as above; type: cell-based; conditions: 18 h; Micrococcus luteus 9341, Table 25; read-out: Minimum Inhibitory Concentration
[13] = system: Acinetobacter calcoaceticus 15473; assay: as above; type: cell-based; conditions: 18 h; Acinetobacter calcoaceticus 15473, Table 25; read-out: Minimum Inhibitory Concentration
[14] = system: Pseudomonas aeruginosa 1912E; assay: as above; type: cell-based; conditions: 18 h; Pseudomonas aeruginosa 1912E, Table 25; read-out: Minimum Inhibitory Concentration
[15] = system: Salmonella typimurium 14028; assay: as above; type: cell-based; conditions: 18 h; Salmonella typimurium 14028, Table 25; read-out: Minimum Inhibitory Concentration
Staphylococcus aureus 77 = assay: as above; type: cell-based; conditions: 18 h; Staphylococcus aureus 77, Table 25; read-out: Minimum Inhibitory Concentration
Bacillus subtilis 6633 = assay: as above; type: cell-based; conditions: 18 h; Bacillus subtilis 6633, Table 25; read-out: Minimum Inhibitory Concentration
[16] = system: Staphylococcus aureus giorgio; assay: as above; type: cell-based; conditions: 18 h, Table 25, read-out: Minimum Inhibitory Concentration
Escherichia coli 851E = assay: as above; type: cell-based; conditions: 18 h, Table 25, read-out: Minimum Inhibitory Concentration
[17] = system: Staphylococcus epidermidis 887E; assay: as above; type: cell-based; conditions: 18 h, Table 25, read-out: Minimum Inhibitory Concentration
[18] = system: Escherichia coli TEM9 2639E; assay: microbe, parasite or virus in culture; type: cell-based; conditions: TEM92639E, 18 h, read-out: Minimum Inhibitory Concentration
[19] = Moisture adsorption test of the anhydride; type: physicochemical; conditions: 25° C.
Protocol: Under various relative humidities at 25° C., the moisture adsorption velocity and the equilibrium moisture content of the anhydride prepared in Example 203 were determined by means of an automatic moisture adsorption analyzer (MB 300 G Gravimetric Sorption Analyzer). This instrument produces a specific relative humidity at a specific temperature and continuously records the weight change of a sample due to adsorption or desorption of moisture as measured by a micro balance inside the instrument. 16 mg of the anhydride sample was loaded on the micro balance and the moisture contained in the sample was removed under a dry nitrogen stream at 50° C. A weight change of less than 5 μg per 5 minutes was the criterion for complete dryness. Thereafter, the inner temperature was adjusted to 25° C., and the sample was tested varying the relative humidity from 0 to 95% at 5% intervals. The sample was considered to have reached equilibrium at each relative humidity tested when the weight change was less than 5 μg per 5 minutes. […] In most cases, the equilibrium was reached within 2 hours.

[20] = Thermal analysis (Differential Scanning Calorimetry); type: physicochemical; conditions: DSC, 10° C./min
Protocol: For the Differential Scanning Calorimetry, METTLER TOLEDO DSC821e and METTLER TOLEDO STARe System were used. 3.7 mg of sample was weighed into the aluminum pan, which was then press sealed with an aluminum lid. After three tiny needle holes were made on the lid, the sample was tested by heating from normal temperature to 250° C. at a rate of 10° C./min.

[21] = Humidification of the anhydride with humidified nitrogen (Example 205); type: physicochemical
Protocol: A sonicator filled with water was adjusted to 40° C. and was sealed with a lid. Then, a nitrogen introducing tube and a nitrogen excreting tube were connected to the vessel. When the pressure of the dried nitrogen introduced through the nitrogen introducing tube was adjusted to 20 psi, the relative humidity of the humidified nitrogen excreted through the excreting tube was more than 93%. […] Samples were taken after 0, 5, 10, 20, 30, and 60 minutes, respectively, and the moisture content with the lapse of time was measured. From the results shown in FIG. 8, it can be seen that moisture content of about 10% is constantly maintained when the humidifying procedure is carried out over 30 minutes. The X-ray diffraction pattern of the humidified sample was identical to that the 3 hydrate obtained after recrystallization.

[22] = Chemical stability under heating; conditions: for thermal stability: hydrate
Protocol: The anhydride and each of the hydrates was introduced into a glass vial and maintained at 70° C.

[23] = Moisture content according to hydration number; type: physicochemical
Protocol: The moisture content of the hydrate varies with the hydration number (n) of the hydrated molecule. Since the molecular weight of 7-(4-amino-methyl-3-methyloxylminopyrrolidin-1-yl)-1-cyclopropyl-6-fluoro- 4-oxo-1,4-dihydro-1,8-naphthyridine-3-carboxylic acid methanesulfonate is 485.5, the moisture content of the hydrate for n equal to 1, 1.5, 2, 2.5, 3, 3.5 or 4 is calculated to be 3.6%, […], 6.9%, 8.5%, 10.0%, 11.5% or 12.9%, respectively. However, the actual moisture content may differ from the calculated moisture content depending on differences in recrystallization conditions, drying conditions, etc.

[24] = Equilibrium moisture content determination of hydrates; type: physicochemical
Protocol: Six saturated aqueous salt solutions were introduced into each desiccator to control the inner relative humidity to a specific value as represented in the following Table 28. Then, equilibrium moisture contents of 3 hydrate and 1.5 hydrate prepared in Examples 205 and 206, respectively, were determined at several relative humidities.
Specifically, 100 mg of the sample was spread on a preweighed Petri dish and the total weight was accurately measured, then three of the sample were placed in each desiccator of Table 28. The desiccators were allowed to stand at normal temperature for 7 days and then the sample was taken to be weighed. After 13 days had passed, one of the three samples inside each desiccator was taken and the moisture content of each was measured by the thermogravimetric analysis described in Test Example 2. Equilibrium moisture content at each relative humidity is represented in FIG. 3 (3 hydrate), and FIG. 4 (1.5 hydrate). […] Both hydrates are stable since they keep a constant equilibrium moisture content regardless of the relative humidity change.

CCn1cc(C(=O)O)c(=O)c2cc(F)c(N3CCNCC3)cc21 [norfloxacin]
distribution and absorption in living body [1]: poor distribution and absorption in living body
antibacterial activity against gram-positive strains (gram-positive strains): weak antibacterial activity against gram-positive strains

NCC1CN(c2c(F)cc3c(=O)c(C(=O)O)cn(C4CC4)c3c2Cl)CC1=NOCc1ccccc1 (stereo not shown) [Example 34, 7-(4-aminomethyl-3-benzyoxyimino-pyrrolidin-1-yl)-8-chloro-1-cyclopropyl-6-fluoro-1,4-dihydro-4-oxo-guinoline-3-carboxylic acid]
MIC [2]: 0.25 µg/mL (≈ 0.501 µM)
MIC [3]: ≤ 0.008 µg/mL
MIC [4]: 2 µg/mL (≈ 4.01 µM)
MIC [5]: 0.13 µg/mL (≈ 0.261 µM)
MIC [6]: 0.5 µg/mL (≈ 1 µM)
MIC (Escherichia coli 3190Y): ≤ 0.008 µg/mL
MIC [7]: 0.25 µg/mL (≈ 0.501 µM)
MIC [8]: 2 µg/mL (≈ 4.01 µM)
LD50 at 168 h (Acute oral toxicity test): > 3000 mg/kg
MIC [9]: 4 µg/mL (≈ 8.02 µM)
MIC (Enterobacter cloacae P99): 0.063 µg/mL (≈ 0.126 µM)
MIC [10]: 1 µg/mL (≈ 2 µM)
MIC [11]: 0.5 µg/mL (≈ 1 µM)
MIC [12]: 0.031 µg/mL (≈ 0.0621 µM)
MIC (Escherichia coli 10536): 0.016 µg/mL (≈ 0.0321 µM)
MIC (Micrococcus luteus 9341): 0.13 µg/mL (≈ 0.261 µM)
MIC [13]: 0.031 µg/mL (≈ 0.0621 µM)
MIC [14]: 0.5 µg/mL (≈ 1 µM)
MIC [15]: 0.063 µg/mL (≈ 0.126 µM)
MIC (Staphylococcus aureus 77): ≤ 0.008 µg/mL
MIC (Bacillus subtilis 6633): ≤ 0.008 µg/mL
MIC [16]: ≤ 0.008 µg/mL
MIC (Escherichia coli 851E): 0.13 µg/mL (≈ 0.261 µM)
MIC [17]: ≤ 0.008 µg/mL
MIC [18]: 0.13 µg/mL (≈ 0.261 µM)

CON=C1CN(c2nc3c(cc2F)c(=O)c(C(=O)O)cn3C2CC2)CC1CN (stereo not shown) [anhydride, 7-(4-aminomethyl-3-methyloxyiminopyrrolidin-1-yl)-1-cyclopropyl-6-fluoro-4-oxo-1,4-dihydro-1,8-naphthyridine-3-carboxylic acid methanesulfonate anhydride]
moisture adsorption ([19]; relative humidity 0 to 95%): Initial moisture adsorption proceeded very speedily at each relative humidity tested; also recorded: the equilibrium moisture content is dependent upon the relative humidity
time to reach moisture adsorption equilibrium ([19]; relative humidity 0 to 95% at 5% intervals, in most cases): ≤ 2 h
endothermic peak [20]: without any endothermic peak
Moisture Content ([21]; before humidification): about 2.5%
Moisture Content ([21]; humidified nitrogen, over 30 minutes, FIG. 8): about 10%

CON=C1CN(c2nc3c(cc2F)c(=O)c(C(=O)O)cn3C2CC2)CC1CN (stereo not shown) [3 hydrate, 7-(4-aminomethyl-3-methyloxyiminopyrrolidin-1-yl)-1-cyclopropyl-6-fluoro-4-oxo-1,4-dihydro-1,8-naphthyridine-3-carboxylic acid methanesulfonate·3 hydrate]
thermal stability compared with the anhydride ([22]; 70° C., Table 29): the same degree of thermal stability as the anhydride
thermal stability ([22]; 40320 min): 94%
thermal stability [22]: 97%
Moisture Content ([23]; actual moisture content, methanesulfonate hydrates, hydrate): 9-11%
change of moisture content ([23]; among stable hydrates): lowest
onset of endothermic peak (vaporization of water) [20]: around 50 °C
stability of hydrate towards relative humidity change [24]: stable
equilibrium moisture content ([24]; whole relative humidity range tested (23 to 75%)): around 10%
